From ChEMBL document CHEMBL1201862, “PubChem BioAssay data set” (2004)
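Step 1: Grow cells in 96-well plates. Step 2: Expose to compound for 48 hours at 5 concentrations. Step 3: Interpolate endpoints linearly; if unreached, use highest concentration. The concentration for 50% growth inhibition is given as GI50.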 Calls of active or inactive are those of the source. Cut-off read from the data, not from the text of the source: active = GI50 up to about 1.1 µM and inactive = higher.

Tests used:
Assay in all cases: inhibition of tumour cell growth, NCI panel, 48 h
Hs-578T = system: Hs-578T
SK-MEL-28 = system: SK-MEL-28
MDA-MB-231 = system: MDA-MB-231
OVCAR-4 = system: OVCAR-4
SW-620 = system: SW-620
IGROV-1 = system: IGROV-1
SNB-19 = system: SNB-19
UACC-62 = system: UACC-62
SK-MEL-2 = system: SK-MEL-2
Malme-3M = system: Malme-3M
HT-29 = system: HT-29
SF-295 = system: SF-295
HOP-62 = system: HOP-62
T47D = system: T47D
MDA-N = system: MDA-N
MCF7 = system: MCF7
OVCAR-5 = system: OVCAR-5
HOP-92 = system: HOP-92
OVCAR-3 = system: OVCAR-3
MDA-MB-435 = system: MDA-MB-435

| Structure (SMILES) | GI50 (Hs-578T) | GI50 (SK-MEL-28) | GI50 (MDA-MB-231) | GI50 (OVCAR-4) | GI50 (SW-620) | GI50 (IGROV-1) | GI50 (SNB-19) | GI50 (UACC-62) | GI50 (SK-MEL-2) | GI50 (Malme-3M) | GI50 (HT-29) | GI50 (SF-295) | GI50 (HOP-62) | GI50 (T47D) | GI50 (MDA-N) | GI50 (MCF7) | GI50 (OVCAR-5) | GI50 (HOP-92) | GI50 (OVCAR-3) | GI50 (MDA-MB-435) |
| --- | --- | --- | --- | --- | --- | --- | --- | --- | --- | --- | --- | --- | --- | --- | --- | --- | --- | --- | --- | --- |
| O=C(O)CCCc1ccc2c(c1)C(C(=O)O)CC2 (centres undefined) | > 100 µM (inactive) | > 100 µM (inactive) | > 100 µM (inactive) | > 100 µM (inactive) | > 100 µM (inactive) | > 100 µM (inactive) | > 100 µM (inactive) | > 100 µM (inactive) | > 100 µM (inactive) | > 100 µM (inactive) | > 100 µM (inactive) | > 100 µM (inactive) | > 100 µM (inactive) | > 100 µM (inactive) | > 100 µM (inactive) | > 100 µM (inactive) | > 100 µM (inactive) |  |  |  |
| COC1OC(CBr)C(OC(c2ccccc2)(c2ccccc2)c2ccccc2)C(OC(c2ccccc2)(c2ccccc2)c2ccccc2)C1OC(c1ccccc1)(c1ccccc1)c1ccccc1 (centres undefined) | 34.9 µM (inactive) | > 100 µM (inactive) |  | 18.3 µM (inactive) | 64.1 µM (inactive) | 78.2 µM (inactive) | 24.3 µM (inactive) | > 100 µM (inactive) |  | 33.8 µM (inactive) | 96.6 µM (inactive) | 42 µM (inactive) | 25.2 µM (inactive) | 22.6 µM (inactive) | 74.3 µM (inactive) | 41.7 µM (inactive) | 41 µM (inactive) | 17.1 µM (inactive) | 14.1 µM (inactive) | > 100 µM (inactive) |
| O=C(Cc1ccccc1)Nn1c(-c2ccccc2)nc2ccccc2c1=O | 42.3 µM (inactive) | > 100 µM (inactive) | > 100 µM (inactive) | > 100 µM (inactive) | > 100 µM (inactive) | > 100 µM (inactive) | > 100 µM (inactive) | > 100 µM (inactive) |  | > 100 µM (inactive) | > 100 µM (inactive) | > 100 µM (inactive) | > 100 µM (inactive) | > 100 µM (inactive) | > 100 µM (inactive) | > 100 µM (inactive) | > 100 µM (inactive) | > 100 µM (inactive) | > 100 µM (inactive) | > 100 µM (inactive) |
| Cc1ccc(-n2cc([Si](C)(C)C)nn2)s1 | > 100 µM (inactive) | > 100 µM (inactive) | > 100 µM (inactive) | > 100 µM (inactive) | > 100 µM (inactive) |  | > 100 µM (inactive) | > 100 µM (inactive) | > 100 µM (inactive) | > 100 µM (inactive) | 34.8 µM (inactive) | > 100 µM (inactive) |  | > 100 µM (inactive) | > 100 µM (inactive) | > 100 µM (inactive) | > 100 µM (inactive) | > 100 µM (inactive) | > 100 µM (inactive) | > 100 µM (inactive) |
| CC1(C)[C@@H]2C[C@H]1C(Cc1cccc(C[C@H]3c4cc(-c5ccccn5)ncc4[C@H]4C[C@@H]3C4(C)C)c1)c1cc(-c3ccccn3)ncc12 (some centres undefined) | > 100 µM (inactive) | 4.93 µM (inactive) | 22.6 µM (inactive) | 4.58 µM (inactive) | 0.745 µM (active) | 0.452 µM (active) | 1.61 µM (inactive) | 0.499 µM (active) | 12.9 µM (inactive) |  | 0.951 µM (active) | 0.92 µM (active) | 1.28 µM (inactive) | 1.71 µM (inactive) | 0.729 µM (active) | 0.547 µM (active) | 1.12 µM (active) |  | 0.502 µM (active) | 0.548 µM (active) |
| c1cc(C[S+]2CCCC2)ccc1C[S+]1CCCC1 | > 100 µM (inactive) | > 100 µM (inactive) | > 100 µM (inactive) | > 100 µM (inactive) | > 100 µM (inactive) | > 100 µM (inactive) | > 100 µM (inactive) | > 100 µM (inactive) |  | > 100 µM (inactive) | > 100 µM (inactive) | > 100 µM (inactive) | > 100 µM (inactive) | > 100 µM (inactive) | > 100 µM (inactive) | > 100 µM (inactive) | > 100 µM (inactive) | > 100 µM (inactive) | > 100 µM (inactive) | > 100 µM (inactive) |
| CC(=O)Oc1ccc(C)c2c1[C@H]1CC[C@]3(C)[C@@H](OC(C)=O)CC[C@H]3[C@@H]1CC2 | 23 µM (inactive) | 17.3 µM (inactive) | 18.2 µM (inactive) |  | 18.9 µM (inactive) | 18.7 µM (inactive) | 17.9 µM (inactive) | 19.9 µM (inactive) |  | 15.7 µM (inactive) | 17.1 µM (inactive) | 23.9 µM (inactive) | 18.1 µM (inactive) | 19.3 µM (inactive) | 18.5 µM (inactive) | 23.6 µM (inactive) | > 100 µM (inactive) | 16.9 µM (inactive) | 18.2 µM (inactive) | 17.9 µM (inactive) |
| COc1cc2ccc(/C=C\[N+](=O)[O-])cc2cc1OC | 7.69 µM (inactive) | 2.66 µM (inactive) | 2.84 µM (inactive) | 3.04 µM (inactive) | 2.65 µM (inactive) | 1.97 µM (inactive) | 7.52 µM (inactive) | 5.15 µM (inactive) | 2.86 µM (inactive) |  | 2 µM (inactive) | 18.2 µM (inactive) | 2.83 µM (inactive) | 2.92 µM (inactive) | 2.18 µM (inactive) | 2.24 µM (inactive) | 13.1 µM (inactive) | 4.41 µM (inactive) | 3.5 µM (inactive) | 2.86 µM (inactive) |
| CN(C)CCNC(=O)c1cccc2c1Oc1cccc([N+](=O)[O-])c1O2 | 18.4 µM (inactive) | 18.8 µM (inactive) | 4.33 µM (inactive) |  | 19.3 µM (inactive) | 18.9 µM (inactive) | 30 µM (inactive) | 18.1 µM (inactive) | 23.5 µM (inactive) | 14.1 µM (inactive) | 15.2 µM (inactive) | 17.5 µM (inactive) | 16.1 µM (inactive) | 14.8 µM (inactive) | 17.7 µM (inactive) | 19.1 µM (inactive) | 20.5 µM (inactive) |  | 20.8 µM (inactive) | 16.5 µM (inactive) |
| COc1ccc(C2=NNC(c3cc4cc(Br)ccc4nc3Cl)C2)cc1 (centres undefined) | 0.0129 µM (active) | 15.5 µM (inactive) |  | 15.3 µM (inactive) | 10.9 µM (inactive) | 9.42 µM (inactive) |  | 22.6 µM (inactive) | 11.8 µM (inactive) |  | 14.6 µM (inactive) |  |  | 0.0887 µM (active) | 6.31 µM (inactive) | 6.67 µM (inactive) | > 25 µM (inactive) | > 25 µM (inactive) | 18.2 µM (inactive) | 7.16 µM (inactive) |
| Cc1ccc(S(=O)(=O)NC(=O)NS(=O)(=O)O)cc1 | > 100 µM (inactive) | > 100 µM (inactive) | > 100 µM (inactive) | > 100 µM (inactive) | > 100 µM (inactive) | > 100 µM (inactive) | > 100 µM (inactive) | > 100 µM (inactive) | > 100 µM (inactive) | > 100 µM (inactive) | > 100 µM (inactive) |  | > 100 µM (inactive) | > 100 µM (inactive) | > 100 µM (inactive) | > 100 µM (inactive) | > 100 µM (inactive) | > 100 µM (inactive) |  |  |
| CC(C)[C@]12O[C@H]1[C@@H]1O[C@]13[C@]1(O[C@H]1C[C@H]1C4=C(CC[C@@]13C)C(=O)OC4)[C@@H]2O [TRIPTOLIDE] | 0.015 µM (active) | 0.00637 µM (active) | 0.0145 µM (active) | 0.00792 µM (active) | 0.0141 µM (active) | 0.00713 µM (active) | 0.104 µM (active) | 0.00421 µM (active) | 0.00643 µM (active) | 0.0112 µM (active) | 0.0083 µM (active) | 0.0279 µM (active) | 0.00701 µM (active) |  | 0.00759 µM (active) | 0.00427 µM (active) |  | 0.023 µM (active) | 0.00586 µM (active) | 0.00693 µM (active) |
| CCc1nc(N)nc(N)c1-c1ccc([N+](C)(C)C)cc1 | > 100 µM (inactive) | > 100 µM (inactive) | > 100 µM (inactive) | > 100 µM (inactive) | > 100 µM (inactive) | > 100 µM (inactive) | > 100 µM (inactive) | > 100 µM (inactive) | > 100 µM (inactive) |  | > 100 µM (inactive) | > 100 µM (inactive) | > 100 µM (inactive) | > 100 µM (inactive) | > 100 µM (inactive) | > 100 µM (inactive) | > 100 µM (inactive) | > 100 µM (inactive) | > 100 µM (inactive) | > 100 µM (inactive) |
| COC(=O)c1c(-c2ccc(Cl)cc2)cc2c3ccccc3n(C)c2c1C(=O)OC | > 100 µM (inactive) | > 100 µM (inactive) | > 100 µM (inactive) | > 100 µM (inactive) | > 100 µM (inactive) | > 100 µM (inactive) | > 100 µM (inactive) | > 100 µM (inactive) | > 100 µM (inactive) | > 100 µM (inactive) | 91.6 µM (inactive) | > 100 µM (inactive) | > 100 µM (inactive) |  | > 100 µM (inactive) | 38.3 µM (inactive) | > 100 µM (inactive) | > 100 µM (inactive) | > 100 µM (inactive) | > 100 µM (inactive) |
| CCOC(=O)Cn1c2ccc(Br)cc2c2nc3ccccc3nc21 | 93.3 µM (inactive) | > 100 µM (inactive) | > 100 µM (inactive) |  | > 100 µM (inactive) | 55.7 µM (inactive) | > 100 µM (inactive) | > 100 µM (inactive) | > 100 µM (inactive) |  | > 100 µM (inactive) | > 100 µM (inactive) | > 100 µM (inactive) | > 100 µM (inactive) | > 100 µM (inactive) |  | > 100 µM (inactive) | > 100 µM (inactive) | > 100 µM (inactive) | > 100 µM (inactive) |
